Consider 1 compound from US20250277029A1, “CANNABINOID TYPE 1 RECEPTOR BINDING PROTEINS AND USES THEREOF” (AMGEN INC., priority 2022, published 2025).

SMILES strings stand for the structures.

The test relates to JAX WT DIO. The test can be described thus: Rimonabant 3 mg/kg QD in JAX WT DIO mice (12 weeks HFD): body weight, fat mass, liver weight. It is filed as in vivo, mouse. Conditions: JAX WT DIO (12 weeks HFD), 3 mg/kg (6.5 μmol/kg, QD).

Consider `Cc1c(C(=O)NN2CCCCC2)nn(-c2ccc(Cl)cc2Cl)c1-c1ccc(Cl)cc1` [Rimonabant, rimonabant], for which the “Fat Mass % Change” value (Day 15) is recorded as −23%. Further, where the note is “Day 17”, the “Liver Weight % Change (Day)” value is recorded as −7%. Further, under “day 17”, the “BW % Change” value is on record as −12.9%.
